Molecules are shown by their SMILES. Where only a bound is given, the exact number is not on record here.

What all share (assay): In vitro MMP inhibition analysis (fluorogenic peptide substrate cleavage), Ki
What all share (assay type): biochemical

The target of one experiment is T1, Human recombinant MMP-1 (Homo sapiens, UniProt P03956).
T1 construct: made in house; host or cells: MMP-1-transfected HT-1080 cells (spent media)
T1 sequence (P03956 100-469): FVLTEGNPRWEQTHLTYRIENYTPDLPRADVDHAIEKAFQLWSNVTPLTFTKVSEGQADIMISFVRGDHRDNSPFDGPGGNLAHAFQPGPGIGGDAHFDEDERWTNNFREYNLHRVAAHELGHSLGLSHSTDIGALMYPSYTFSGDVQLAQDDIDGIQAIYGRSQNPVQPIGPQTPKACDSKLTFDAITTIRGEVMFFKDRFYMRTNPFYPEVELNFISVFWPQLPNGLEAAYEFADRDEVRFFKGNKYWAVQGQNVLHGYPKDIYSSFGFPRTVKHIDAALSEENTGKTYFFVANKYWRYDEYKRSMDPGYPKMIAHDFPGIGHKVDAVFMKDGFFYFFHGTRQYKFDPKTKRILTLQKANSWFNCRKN
In a few lines: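 APMA- or trypsin-activated recombinant human MMP-1 (purified from transfected HT-1080 medium) with 4 μM MCA/Dpa quenched fluorogenic peptide, 1 h at room temperature in Tris/NaCl/CaCl2 buffer pH 7.5; fluorescence ex 330/em 420 nm. Ki from Morrison-equation fit of rates, substrate at or below Km, uncorrected.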

The target in another experiment is T2, Human recombinant MMP-2 (Homo sapiens, UniProt P08253).
T2 construct: made in house; host or cells: MMP-2-transfected p2AHT2 cells
T2 sequence (P08253 110-660): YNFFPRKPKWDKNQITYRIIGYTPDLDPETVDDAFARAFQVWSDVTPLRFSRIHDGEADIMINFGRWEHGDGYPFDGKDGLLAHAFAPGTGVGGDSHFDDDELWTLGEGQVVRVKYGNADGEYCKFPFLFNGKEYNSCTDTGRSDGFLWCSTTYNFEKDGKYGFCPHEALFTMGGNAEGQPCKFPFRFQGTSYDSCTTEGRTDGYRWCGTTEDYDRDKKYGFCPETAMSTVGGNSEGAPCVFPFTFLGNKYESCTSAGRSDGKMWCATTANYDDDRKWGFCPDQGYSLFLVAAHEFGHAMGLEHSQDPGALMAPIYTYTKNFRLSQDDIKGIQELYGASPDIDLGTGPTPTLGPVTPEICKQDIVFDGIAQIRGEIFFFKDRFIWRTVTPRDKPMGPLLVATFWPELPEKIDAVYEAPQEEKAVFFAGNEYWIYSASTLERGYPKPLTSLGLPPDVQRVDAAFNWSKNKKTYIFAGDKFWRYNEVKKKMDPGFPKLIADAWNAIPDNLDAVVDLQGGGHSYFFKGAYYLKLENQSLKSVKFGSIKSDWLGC
In a few lines: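 Human recombinant MMP-2 from transfected p2AHT2 cells was activated with APMA or trypsin and incubated 1 h at room temperature with compounds and 4 μM MCA-RPLGL(Dpa)ARER-NH2. Buffer was pH 7.5 Tris/NaCl/CaCl2, and fluorescence was read at ex 330/em 420 nm. Ki was fitted by Morrison's equation without substrate correction.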

The target in another experiment is T3, Human recombinant MMP-14 (Homo sapiens, UniProt P50281).
T3 construct: The catalytic domain enzyme was expressed in E. coli inclusion bodies, solubilized in urea; made in house
In a few lines:
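Refolded catalytic domain of MMP-14 expressed in E. coli, activated with APMA or trypsin, incubated 1 h at room temperature with 4 μM MCA-peptide substrate in Tris buffer pH 7.5 with CaCl2. Cleavage rate followed by fluorescence (ex 330/em 420 nm). Ki from Morrison-equation fit; substrate at or below Km, so no substrate correction.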

With `CCN1CCC(C(=O)NO)(S(=O)(=O)c2ccc(-c3ccc(CCC(F)(F)C(F)(F)F)cn3)cc2)CC1` [Example 52], the Ki is more than 10000 nM on Human recombinant MMP-1 (Table 1), 0.21 nM on Human recombinant MMP-2 (Table 1) and 2580 nM on Human recombinant MMP-14 (Table 1).
On to `COCCN1CCC(C(=O)NO)(S(=O)(=O)c2ccc(-c3cnc(OCC(F)(F)C(F)(F)F)cn3)cc2)CC1` [Example 157], for which the Ki at Human recombinant MMP-1 (Table 2) stood at 9580 nM; at Human recombinant MMP-2 (Table 2), 0.37 nM; on Human recombinant MMP-14 (Table 2), 1220 nM.
With `O=C(NO)C1(S(=O)(=O)c2ccc(-c3ccc(CCC(F)(C(F)(F)F)C(F)(F)F)cn3)cc2)CCOCC1` [Example 133], the inhibition constant Ki was 7400 nM on Human recombinant MMP-1 (Table 2), 11.9 nM on Human recombinant MMP-2 (Table 2) and 4150 nM on Human recombinant MMP-14 (Table 2).
The corresponding values for `O=C(NO)C1(S(=O)(=O)c2ccc(-c3cnc(N4CCCC4)cn3)cc2)CCOCC1` [Example 138] are more than 10000 nM, 0.218 nM and 1110 nM.
In the same order, the values of `O=C(NO)C1(S(=O)(=O)c2ccc(-c3ccc(-c4ccccc4)cc3)cc2)CCN(C2CC2)CC1` [Example 153] are 1310 nM, 0.26 nM and 205 nM.
In the same order, the values of `O=C(NO)C1(S(=O)(=O)c2ccc(-c3cnc(N4CCCCC4)cn3)cc2)CCOCC1` [Example 131] are more than 10000 nM, 0.89 nM and 6240 nM.
In the case of `O=C(NO)C1(S(=O)(=O)c2ccc(-c3ccc(-c4ccc(OC(F)(F)F)cc4)cn3)cc2)CCN(C2CC2)CC1` [Example 145], the Ki on Human recombinant MMP-1 (Table 2) came to 3390 nM; on Human recombinant MMP-2 (Table 2), 0.72 nM; at Human recombinant MMP-14 (Table 2), 560 nM.
In the same order, the values of `CCCCc1ccc(-c2ccc(S(=O)(=O)C3(C(=O)NO)CCN(CC)CC3)cc2)nc1` [Example 140] are more than 10000 nM, 0.176 nM and 604 nM.
`COCCN1CCC(C(=O)NO)(S(=O)(=O)c2ccc(-c3ccc(CCC(C)(F)F)cn3)cc2)CC1` [Example 67]: the Ki on Human recombinant MMP-1 (Table 1) turned out to be 8470 nM; at Human recombinant MMP-2 (Table 1), 0.14 nM; on Human recombinant MMP-14 (Table 1) it was 831 nM.
With `CCN1CCC(C(=O)NO)(S(=O)(=O)c2ccc(-c3ccc(-c4ccncc4)cc3)cc2)CC1` [Example 136], the figures for the Ki at Human recombinant MMP-1 (Table 2), on Human recombinant MMP-2 (Table 2) and at Human recombinant MMP-14 (Table 2) were 1070 nM, 0.074 nM and 308 nM, respectively.
The corresponding values for `CCCCCc1ccc(-c2ccc(S(=O)(=O)C3(C(=O)NO)CCOCC3)cc2)cc1` [Example 75] are 3970 nM, 0.674 nM and 621 nM.

For orientation: Ki means a measure of affinity in units of concentration, obtained from inhibition or displacement.

Source of the values: patent US20060074243A1, “Hydroxamic acid and amide compounds and their use as protease inhibitors” (Pharmacia Corporation, priority 2002, published 2006).
